For the test, the system named is L1210 leukemia ip in BDF1 mice, survival T/C. As to the kind of experiment: NCI In Vivo Anticancer Drug Screen. Data for tumor model L1210 Leukemia (intraperitoneal) in B6D2F1 (BDF1) mice. The conditions noted are these: endpoint: mean survival time, higher = longer survival. An outline of the steps:
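Mice bearing the transplanted tumor received compound or vehicle. Survival of the treated group was divided by that of the vehicle-treated control group to give the ratio.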

The mark [1] stands for this setting: dose: 100.0 mg/kg/injection, schedule: Q01DX009 (ip), vehicle: saline with Tween-80.
The mark [2] stands for this setting: dose: 200.0 mg/kg/injection, schedule: Q01DX009 (ip), vehicle: saline with Tween-80.
[3] abbreviates: dose: 50.0 mg/kg/injection, schedule: Q01DX009 (ip), vehicle: Klucel (hydroxypropylcellulose) (HPC).
Where [4] appears, read: dose: 100.0 mg/kg/injection, schedule: Q01DX009 (ip), vehicle: Klucel (hydroxypropylcellulose) (HPC).
Setting [5] is: dose: 200.0 mg/kg/injection, schedule: Q01DX009 (ip), vehicle: Klucel (hydroxypropylcellulose) (HPC).
[6] abbreviates: dose: 100.0 mg/kg/injection, schedule: Q04DX003 (ip), vehicle: saline with Tween-80.
Where [7] appears, read: dose: 200.0 mg/kg/injection, schedule: Q04DX003 (ip), vehicle: saline with Tween-80.
Setting [8] is: dose: 400.0 mg/kg/injection, schedule: Q01DX009 (ip), vehicle: saline with Tween-80.
The mark [9] stands for this setting: dose: 100.0 mg/kg/injection, schedule: Q01DX001 (ip), vehicle: saline.
Where [10] appears, read: dose: 100.0 mg/kg/injection, schedule: Q04DX003 (ip), vehicle: saline.
Where [11] appears, read: dose: 200.0 mg/kg/injection, schedule: Q01DX001 (ip), vehicle: saline.
[12] abbreviates: dose: 400.0 mg/kg/injection, schedule: Q01DX001 (ip), vehicle: saline.

Where “and” joins values, the source holds several entries; their conditions need not be identical. Identical values can stand only once. Toxic doses and inconclusive results are not listed.

With `O=C1/C(=C\c2ccc(O)cc2)Oc2cc(O)ccc21`, the T/C was 98 % of control (dose: 100.0 mg/kg/injection, schedule: Q01DX001 (ip), vehicle: saline with Tween-80); 87 % of control (dose: 200.0 mg/kg/injection, schedule: Q01DX001 (ip), vehicle: saline with Tween-80); 90 % of control (dose: 400.0 mg/kg/injection, schedule: Q01DX001 (ip), vehicle: saline with Tween-80).
`CCC(=O)Nc1cccc(Cl)c1`: the T/C by setting is: under setting [1], 97 % of control; (dose: 100.0 mg/kg/injection, schedule: Q04DX003 (ip), vehicle: Klucel (hydroxypropylcellulose) (HPC)) 97 % of control; under setting [2], 103 % of control; (dose: 200.0 mg/kg/injection, schedule: Q04DX003 (ip), vehicle: Klucel (hydroxypropylcellulose) (HPC)) 97 % of control; (dose: 400.0 mg/kg/injection, schedule: Q04DX003 (ip), vehicle: Klucel (hydroxypropylcellulose) (HPC)) 108 % of control.
For the compound `C=CC(COC(C)=O)N1CC1` (stereo not given) (tested in a mixture with another compound), the T/C (dose: 30.0 mg/kg/injection, schedule: Q04DX003 (ip), vehicle: saline) was 166 % of control and the T/C (dose: 60.0 mg/kg/injection, schedule: Q04DX003 (ip), vehicle: saline) was 107 % of control.
On to `CCCCOS(=O)(=O)c1ccc(N)cc1`, for which the T/C by setting is: under setting [3], 229 % of control; under setting [4], 90 % of control; under setting [5], 93 % of control.
For the compound `O=C(O)c1cc([N+](=O)[O-])ccc1Br`, the T/C runs as follows: under setting [3], 89 % of control; under setting [4], 86 % of control; under setting [5], 93 % of control.
With `COC1(C(=O)OOC(C)(C)C)CC1(c1ccccc1)c1ccccc1` (stereo not given), the T/C runs as follows: (dose: 50.0 mg/kg/injection, schedule: Q01DX001 (ip), vehicle: Klucel (hydroxypropylcellulose) (HPC)) 107 % of control; (dose: 100.0 mg/kg/injection, schedule: Q01DX001 (ip), vehicle: Klucel (hydroxypropylcellulose) (HPC)) 102 % of control; (dose: 200.0 mg/kg/injection, schedule: Q01DX001 (ip), vehicle: Klucel (hydroxypropylcellulose) (HPC)) 100 % of control.
Consider `CC(=O)N(C1=C(N(CCO)CCO)C(=O)c2ccccc2C1=O)c1ccccc1`, for which the T/C under setting [6] was 106 % of control; the T/C under setting [7] is 103 % of control; the T/C (dose: 400.0 mg/kg/injection, schedule: Q04DX003 (ip), vehicle: saline with Tween-80) was 101 % of control.
Consider `CCCOc1ccc(/C=N\N=C\c2ccc(OCCC)cc2)cc1`, for which the T/C runs as follows: under setting [1], 94 % of control; under setting [2], 94 % of control; under setting [8], 91 % of control.
For the compound `N#CCCSC(=N)N`, the T/C runs as follows: (dose: 25.0 mg/kg/injection, schedule: Q01DX009 (ip), vehicle: saline) 107 % of control; (dose: 25.0 mg/kg/injection, schedule: Q04DX003 (ip), vehicle: saline) 96 % of control; (dose: 50.0 mg/kg/injection, schedule: Q01DX009 (ip), vehicle: saline) 118 % of control; (dose: 50.0 mg/kg/injection, schedule: Q04DX003 (ip), vehicle: saline) 102 % of control; under setting [9], 95 % of control; (dose: 100.0 mg/kg/injection, schedule: Q01DX009 (ip), vehicle: saline) 103 % of control. For the same compound, the T/C under setting [10] was 107 % of control.
As for `CCCCc1cc(O)c2c(c1O)C(=O)c1ccccc1C2=O`, the T/C by setting is: (dose: 100.0 mg/kg/injection, schedule: Q01DX001 (ip), vehicle: saline sonified) 91 % of control; (dose: 100.0 mg/kg/injection, schedule: Q01DX009 (ip), vehicle: saline sonified) 97 % of control; (dose: 200.0 mg/kg/injection, schedule: Q01DX001 (ip), vehicle: saline sonified) 86 % of control; (dose: 200.0 mg/kg/injection, schedule: Q01DX009 (ip), vehicle: saline sonified) 102 % of control; (dose: 400.0 mg/kg/injection, schedule: Q01DX001 (ip), vehicle: saline sonified) 94 % of control; (dose: 400.0 mg/kg/injection, schedule: Q01DX009 (ip), vehicle: saline sonified) 96 % of control.
Consider `CCCCCCCC[As](=O)(O)CCCCCCCC`, for which the T/C (dose: 50.0 mg/kg/injection, schedule: Q01DX001 (ip), vehicle: saline) was 101 % of control; the T/C under setting [9] is 101 % of control; the T/C under setting [11] is 98 % of control; the T/C under setting [12] was 107 % of control.
Regarding `CN(C)c1ccc(C(C#N)OC(=O)c2ccccc2)cc1` (stereo not given), the T/C was 89 % of control (dose: 100.0 mg/kg/injection, schedule: Q01DX001 (ip), vehicle: carboxymethylcellulose (CMC)); 93 % of control (dose: 100.0 mg/kg/injection, schedule: Q01DX009 (ip), vehicle: carboxymethylcellulose (CMC)); 97 % of control (dose: 100.0 mg/kg/injection, schedule: Q04DX002 (ip), vehicle: carboxymethylcellulose (CMC)); 100 % of control (dose: 100.0 mg/kg/injection, schedule: Q04DX003 (ip), vehicle: carboxymethylcellulose (CMC)); 94 % of control (dose: 200.0 mg/kg/injection, schedule: Q01DX001 (ip), vehicle: carboxymethylcellulose (CMC)); 98 % of control and 90 % of control (dose: 200.0 mg/kg/injection, schedule: Q01DX009 (ip), vehicle: carboxymethylcellulose (CMC)). The T/C runs as follows: (dose: 200.0 mg/kg/injection, schedule: Q04DX002 (ip), vehicle: carboxymethylcellulose (CMC)) 97 % of control; (dose: 200.0 mg/kg/injection, schedule: Q04DX003 (ip), vehicle: carboxymethylcellulose (CMC)) 89 % of control; (dose: 400.0 mg/kg/injection, schedule: Q01DX001 (ip), vehicle: carboxymethylcellulose (CMC)) 91 % of control; (dose: 400.0 mg/kg/injection, schedule: Q01DX009 (ip), vehicle: carboxymethylcellulose (CMC)) 98 % of control and 86 % of control; (dose: 400.0 mg/kg/injection, schedule: Q04DX002 (ip), vehicle: carboxymethylcellulose (CMC)) 94 % of control; (dose: 400.0 mg/kg/injection, schedule: Q04DX003 (ip), vehicle: carboxymethylcellulose (CMC)) 94 % of control.
With `CC(C)(C)C(=O)CC(=O)C(C)(C)C`, the T/C is 101 % of control under setting [9]; 92 % of control (dose: 100.0 mg/kg/injection, schedule: Q01DX009 (ip), vehicle: other); 91 % of control under setting [1]; 102 % of control (dose: 100.0 mg/kg/injection, schedule: Q04DX002 (ip), vehicle: other); 116 % of control (dose: 100.0 mg/kg/injection, schedule: Q04DX002 (ip), vehicle: saline); 103 % of control under setting [6]. The T/C under setting [10] was 98 % of control; the T/C under setting [11] is 110 % of control; the T/C (dose: 200.0 mg/kg/injection, schedule: Q01DX009 (ip), vehicle: other) was 97 % of control; the T/C under setting [2] is 97 % of control; the T/C (dose: 200.0 mg/kg/injection, schedule: Q04DX002 (ip), vehicle: other) was 97 % of control; the T/C (dose: 200.0 mg/kg/injection, schedule: Q04DX002 (ip), vehicle: saline) was 101 % of control. Besides, the T/C was 103 % of control under setting [7]; 103 % of control (dose: 200.0 mg/kg/injection, schedule: Q04DX003 (ip), vehicle: saline); 102 % of control under setting [12]; 97 % of control (dose: 400.0 mg/kg/injection, schedule: Q01DX009 (ip), vehicle: other); 91 % of control under setting [8]; 102 % of control (dose: 400.0 mg/kg/injection, schedule: Q04DX002 (ip), vehicle: other). Moreover, the T/C by setting is: (dose: 400.0 mg/kg/injection, schedule: Q04DX002 (ip), vehicle: saline) 108 % of control; (dose: 400.0 mg/kg/injection, schedule: Q04DX003 (ip), vehicle: saline) 95 % of control.
Turning to `C=CCOC(=O)CCCCCCCCCCC`, the T/C by setting is: under setting [1], 107 % of control; under setting [2], 107 % of control; under setting [8], 96 % of control.
On to `[N-]=[N+]=NC1=C(Cl)C(=O)c2ccccc2C1=O`, for which the T/C runs as follows: (dose: 6.25 mg/kg/injection, schedule: Q04DX002 (ip), vehicle: saline with Tween-80) 101 % of control; (dose: 12.5 mg/kg/injection, schedule: Q04DX002 (ip), vehicle: saline with Tween-80) 96 % of control; (dose: 25.0 mg/kg/injection, schedule: Q04DX002 (ip), vehicle: saline with Tween-80) 96 % of control.

The values are drawn from PubChem BioAssay AID248 (DTP/NCI, 2004).
